How the values were obtained:
[1] = tested on: FaDu subcutaneous xenograft; experiment: Antitumor effects in FaDu subcutaneous xenograft model as monotherapy; assay type: in vivo, nude mice; conditions: intravenous at MTD: Halichondrin B 0.05 mg/kg, Compound (1) 0.2 mg/kg
Experimental: A human squamous cell carcinoma of the head and neck (SCCHN) cell line FaDu, which had been cultured in an RPMI-1640 medium containing 10% FBS, and penicillin and streptomycin, was adjusted to a concentration of 4.8×10^7 cells/mL with Hanks' Balanced Salt Solution to prepare a cell suspension. The cell suspension was inoculated in a volume of 100 μL into a subcutaneous part of a right flank of nude mice, 7 weeks of ages (CAnN.Cg-Foxnlnu/CrlCrlj, female, Charles River Laboratories Japan Inc.). Nine days after cell inoculation, the shortest diameter and the longest diameter of a tumor in each mouse were measured by using an electronic digital caliper (Digimatic™ caliper, Mitutoyo Corporation), so as to calculate the volume of the tumor in accordance with the following calculation formulae: […]
On the basis of the volumes of tumors obtained on the first day of administration, the mice were grouped such that averages of the tumor volumes were substantially equal among the groups. Each test compound was dissolved in DMSO and a solution was stored at the freezer before use. Immediately before the administration, the stock solution was diluted in saline with 100 μM of hydroxypropyl-β-cyclodextrin. Each evaluation sample was intravenously administered at a maximum tolerable dose (MTD). Incidentally, the experiment was conducted on groups each consisting of 4 mice.

[2] = tested on: human breast cancer cell line HCC1954; experiment: HCC1954 growth inhibition assay (Test Example 3); assay type: cell-based; conditions: 3 days incubation, CellTiter-Glo
Experimental: In this assay, the growth inhibitory activity of test compounds in a human breast cancer cell line HCCl954 was measured. HCC1954 cells were maintained in an RPMI-1640 medium modified to contain 2 mM L-glutamine, 10 mM HEPES, 1 mM sodium pyruvate, 4500 mg/L glucose, and 1500 mg/L sodium bicarbonate (ATCC 30-2001) containing 10% fetal bovine serum (FBS: Nichirei, 12D168), and penicillin and streptomycin in a 5% CO2 incubator (37° C.). To each well of a 96 well plate (Becton, Dickinson and Company, 353219), 75 μL of HCC1954 cell suspension adjusted to a concentration of 4×10^4 cells/mL with the culture medium was added, and the cells were incubated overnight in a 5% CO2 incubator (37° C.). On the next day, 25 μL of Compound (1) or Halichondrin B in three-fold dilution series suspended in the culture medium was added to each well, and the resultant was incubated for 3 days in a 5% CO2 incubator (37° C.). Then, cell viability was determined by CellTiter-Glo® Luminescent Cell Viability Assay (Promega) with EnVision 2103 Multilabel Reader (Perkin-Elmer, Wellesley, MA). Value of the wells containing cells without adding the test compounds was defined as 100% and the value of the wells containing no cells was defined as 0%. The concentration of the test compound necessary for inhibiting the cell growth by 50% (i.e., an IC50 value) was calculated, and shown in Table 3.

[3] = tested on: α-SMA positive-CAFs in FaDu tumor; experiment: Effect on α-SMA positive-CAFs in the FaDu subcutaneous model (Test Example 10); assay type: in vivo, nude mice; conditions: two days after administration
Experimental: A human squamous cell carcinoma of the head and neck (SCCHN) cell line FaDu, which had been cultured in an RPMI-1640 medium containing 10% FBS, and penicillin and streptomycin, was adjusted to a concentration of 5×10^7 cells/mL with PBS to prepare a cell suspension. The cell suspension was inoculated in a volume of 100 μL into a subcutaneous part of a right flank of nude mice, 5 to 6 weeks of ages (CAnN.Cg-Foxnlnu/CrlCrlj, female, Charles River Laboratories Japan, Inc.). Ten days after cell inoculation, a test compound in saline with 100 μM of hydroxypropyl-β-cyclodextrin was intravenously administered at ½ MTD and MTD. The experiment was conducted on groups each consisting of 3 mice. Two days after administration, tumor samples were collected and fixed with IHC Zinc Fixative (BD Pharmingen) at 4° C. for 24 hr. Paraffin-embedded tissues were sectioned ([…]), mounted on positively charged slides, and air-dried for 6 hr. Immunohistochemical staining of α-SMA was conducted using Ventana autostainer model Discover XT (Roche Diagnostics). Sections were deparaffinized, conditioned and the antigens were retrieved with proprietary buffers, EZPrep and CC1 (Ventana Medical Systems). Mouse anti-α-SMA monoclonal antibody conjugated with alkaline phosphatase (clone 1A4, Sigma) was applied at 5 μg/mL. Sections were incubated with the antibody for 6 hr. The detection was performed with RedMap kit (Ventana Medical Systems, Inc). Sections were dehydrated in graded ethanols, defatted in xylene replacement and covered with DPX (Merck KGaA). The serial tumor slices were deparaffinized and stained with Mayer's hematoxylin (Muto Pure Chemicals) for 1 min. Sections were dehydrated in graded ethanols, defatted in xylene replacement and covered with DPX (Merck KGaA).
Immunostained slides were scanned using Vectra 2 Automated Slide Imaging System (Perkin Elmer Inc.). The area of the α-SMA-positive region in the whole tumor was quantified by counting the α-SMA-positive objects using inForm 2 software (PerkinElmer Inc.). Area of the tumor region was measured by assessing the hematoxylin-staining area using inForm 2 software (PerkinElmer Inc.). The area of the α-SMA positive region was normalized by the area of the tumor region. A suppression rate of the α-SMA positive area of the test compound-dosing group was calculated with the below formula, and shown in Table 10.

[4] = tested on: HSC-2-Luc inoculated into tongue; experiment: HSC-2 orthotopic transplantation mouse model; assay type: in vivo, nude mice; conditions: for ILS (%): Compound (1) 0.09 mg/kg
[5] = MTD i.v. (Halichondrin B 0.05 mg/kg, Compound (1) 0.20 mg/kg)
[6] = ½ MTD i.v. (Halichondrin B 0.025 mg/kg, Compound (1) 0.10 mg/kg)

## C=C1C[C@@H]2CC[C@@]34C[C@H]5O[C@H]6[C@@H](O3)[C@H]3O[C@H](CC[C@@H]3O[C@H]6C5O4)CC(=O)O[C@@H]3[C@@H](C)[C@@H]4O[C@@H]5C[C@]6(C[C@@H]7O[C@]8(C[C@H](C)[C@@H]9O[C@H](CN)[C@H](O)C[C@@H]9O8)C[C@H](C)[C@@H]7O6)O[C@@H]5C[C@@H]4O[C@H]3C[C@H]3O[C@@H](CC[C@@H]1O2)C[C@@H](C)C3=C (stereo in doubt) [Compound (1)]
[1]
  Tumor Regression (%): 43%
[2]; Homo sapiens, HCC1954, 72 h
  IC50: 0.0668 nM
[3]; [5]
  Suppression rate of α-SMA positive area (%): 28%
[3]; [6]
  Suppression rate of α-SMA positive area (%): 21%
[4]; Compound (1) with cetuximab, after Day 14
  bioluminescence signal: clearly reduced the bioluminescence signal in all mice
[4]; Compound (1)+CTX combination group, n=16
  survived mice on Day 100: 10
[4]; single agent, Q7Dx3: cetuximab 5 mg/kg, cisplatin 5 mg/kg
  ILS (%): 238%
[4]; with cetuximab 5 mg/kg, Q7Dx3: cisplatin 5 mg/kg
  ILS (%): >1150%

## C=C1C[C@@H]2CC[C@@]34C[C@H]5O[C@H]6[C@@H](O3)[C@H]3O[C@H](CC[C@@H]3O[C@H]6[C@H]5O4)CC(=O)O[C@@H]3[C@@H](C)[C@@H]4O[C@@H]5C[C@]6(C[C@@H]7O[C@]8(C[C@H](C)[C@@H]9O[C@H]([C@@H](O)C[C@@H](O)CO)C[C@@H]9O8)C[C@H](C)[C@@H]7O6)O[C@@H]5C[C@@H]4O[C@H]3C[C@H]3O[C@@H](CC[C@@H]1O2)C[C@@H](C)C3=C [Halichondrin B, reference compound]
[1]
  Tumor Regression (%): 0%
[2]
  IC50: 0.154 nM
[3]; [5]
  Suppression rate of α-SMA positive area (%): 3%
[3]; [6]
  Suppression rate of α-SMA positive area (%): 7%

Reference: patent publication US20240309014A1, “MACROCYCLIC COMPOUNDS AND USES THEREOF” (President and Fellows of Harvard College, priority 2017, published 2024)
